In paper PMC11242993, “Evaluation of the Therapeutic Potential of Sulfonyl Urea Derivatives as Soluble Epoxide Hydrolase (sEH) Inhibitors” (Molecules, 2024):
Entries after “also recorded” stand apart in the source; their conditions may differ.

Experiments:
[1] = tested on: Caco-2 cells; assay: Caco-2 permeability; assay type: in vitro ADME
Protocol: Caco-2 cells were cultured in 75 cm^2 flasks to 80–90% confluence according to the ATCC and Millipore recommendations in a humidified atmosphere at 37 °C and 5% CO2. Cells were detached with a trypsin/EDTA solution, resuspended in the complete medium containing DMEM high glucose ([…]) with L-glutamine (4 mM) supplemented with 10% heat-inactivated Fetal Bovine Serum, 1% non-essential amino acids, and 730 nM puromycin, and seeded at a density of 5 × 10^5 cells in a 75 cm^2 flask. After 5 days, cells were trypsinized and resuspended in the complete medium to a final concentration of 600 × 10^3 cells/mL. Of the cell suspension, 400 µL was added to each well of an HTS 24-Multiwell Insert System and 25 mL of prewarmed complete medium was added to the feeder tray. Caco-2 cells were incubated in the Multiwell Insert System for 6–10 days before the transport experiments. The medium in the filter plate and feeder tray was refreshed every other day. Prior to the transport experiment, the integrity of the monolayer was verified by measuring the transepithelial electrical resistance (TEER) for every well using a Millicell-ERS system ohm meter. The final TEER values were within the range of 150–600 Ω × cm^2, as required for the assay conditions. The 24-well insert plate was removed from its feeder plate and placed in a new sterile 24-well transport analysis plate. The inserts were washed with PBS after medium aspiration. Ketoprofen, atenolol, digoxin, and quinidine were used as reference compounds.
To determine transport rates in the basolateral (B)-to-apical (A) direction, 1000 μL of the test compound solutions was added into the wells of the transport analysis plate, and the wells in the filter plate were filled with 300 μL of buffer (apical compartment).
The effect of the inhibitor on the Pgp-mediated transport of the tested compounds was assessed by determining the bidirectional transport in the presence or absence of verapamil. The Caco-2 cells were preincubated for 30 min at 37 °C with 100 μM of verapamil in both apical and basolateral compartments. After removal of the preincubation medium, the test compounds with verapamil (100 μM) in transport buffer were added in donor wells, while the receiver wells were filled with the appropriate volume of transport buffer with 100 μM of verapamil. The final amounts of test and reference compounds were 10 μM each. The plates were incubated for 90 min at 37 °C under continuous shaking at 100 rpm. Aliquots of 75 μL were taken from the donor and receiver compartments for LC–MS/MS analysis. All samples were mixed with 2 volumes of acetonitrile followed by protein sedimentation by centrifuging at 10,000 rpm for 10 min. Supernatants were analyzed using the HPLC system coupled with a tandem mass spectrometer.

[2] = Microsomal stability; assay type: in vitro ADME; conditions: pH 7.4, human liver microsomes; for remaining at 1 h, 2 μM: read-out: Human Metabolic Stability % Remaining after 1 h; for half-life at 2 μM: read-out: Human Metabolic Stability Half Life
Protocol: Human microsomal incubations were carried out in 96-well plates in 5 aliquots of 30 μL each (one for each time point). Human liver microsomal incubation medium comprised of phosphate buffer (100 mM, pH 7.4), MgCl2 (3.3 mM), NADPH (3 mM), glucose-6-phosphate (5.3 mM), glucose-6-phosphate dehydrogenase (0.67 units/mL) with 0.42 mg of liver microsomal protein per ml. In the control reactions, the NADPH-cofactor system was substituted with phosphate buffer. Test compounds (2 μM, final solvent concentration 1.6%) were incubated with microsomes at 37 °C and shaken at 100 rpm. Each reaction was performed in duplicates. Five time points over 40 min were analyzed. The reactions were stopped by adding 5 volumes of methanol containing the internal standard to the incubation aliquots, followed by protein sedimentation by centrifuging at 5500 rpm for 4 min. Supernatants were analyzed using the HPLC system coupled with a tandem mass spectrometer.

[3] = tested on: mice; assay: LPS-induced acute lung injury (ALI) model; assay type: in vivo; conditions: 10 mg/kg i.p.
Protocol: LPS-induced acute lung injury induced by a single oropharyngeal instillation of lipopolysaccharide (LPS) (50 µg/mouse) in 16-week-old mice as described previously. Briefly, LPS (L4391, MilliporeSigma, Burlington, MA, USA) was dissolved in sterile saline and administered at 50 µg/mouse in 40 µL after anesthesia induced by ketamine/xylazine. The mice were studied 24 h after LPS or saline instillation.
BALF was collected from anesthetized mice by lavaging lungs two times with 0.8 mL Hanks’ balanced salt solution without calcium and magnesium (HBSS) (Sigma-Aldrich, St. Louis, MI, USA). Supernatants were collected as BALF for further analyses.
The number of cells in the BALF was estimated using an automated cell counter, the Countess II FL cell counter (Thermo Fisher Scientific Inc., Waltham, MA, USA).
Albumin levels were measured by the Mouse Albumin Elisa Assay kit (Cat # E99-134), which was obtained from Bethyl Laboratories. BALF samples from the LPS group were diluted at a 1:2000 ratio.
Total protein in BALF samples was measured using the Pierce BCA protein assay kit (Cat # 23225) as detailed in the product manual (Thermo Fisher Scientific).
The right middle lobe was immediately placed in an RNA later solution and stored at −80 °C until the RNA extraction procedure. RNA extraction was performed using RNeasy Mini Kits from Qiagen (Valencia, CA, USA). One microgram of total RNA was reverse transcribed to cDNA using an iScript cDNA synthesis kit (Bio-Rad, Hercules, CA, USA). Expression of the target genes was quantified using gene-specific primers and PowerSYBRGreen master mix (Thermo Fisher Scientific) in a QuantStudio 3 Real-Time PCR instrument (Thermo Fisher Scientific). Predesigned mouse IL-6 (QT00098875), TNF-α (QT00104006), IL-1β (QT01048355), CXCL1 (QT00115647), CCL2 (QT00167832), CXCL3 (QT00151599) and CXCL9 (QT00097062) primers were purchased from Qiagen (Valencia, CA, USA). Fold changes in gene expression relative to the housekeeping gene TATA-Box Binding Protein (Tbp, QT00198443) were determined. Gene expression values were calculated based on the […] method.

| SMILES | brain penetrability judged from Caco-2 permeability [1] | remaining at 1 h, 2 μM [2] | half-life at 2 μM [2] | effect on LPS-induced increase in total protein in BALF [3] | LPS-induced lung gene expression of interleukin 1B (IL-1B) ([3]; qPCR) | LPS-induced lung gene expression of interleukin 6 (IL-6) ([3]; qPCR) | Pgp substrate status from Caco-2 efflux ratio [1] | number of cells in bronchoalveolar lavage (BAL) [3] | lung gene expression of CCL-2 ([3]; qPCR) | lung gene expression of CXCL1 ([3]; qPCR) | LPS-induced lung gene expression of interleukin 6 (IL-6) ([3]; qPCR, 10 mg/kg) |
| --- | --- | --- | --- | --- | --- | --- | --- | --- | --- | --- | --- |
| O=C(NC12CC3CC(CC(C3)C1)C2)NS(=O)(=O)c1ccc2ccccc2c1 [Compound 4l] | brain penetrable | 45% | 0.557 h | neither AUDA nor novel sEH inhibitors’ (4f and 4l) effect | had no effect on reducing these | had no effect on reducing these |  |  |  |  |  |
| O=C(NC12CC3CC(CC(C3)C1)C2)NS(=O)(=O)c1ccc(OC(F)(F)F)cc1 [Compound 4f] | brain penetrable | 80% | 1.77 h | neither AUDA nor novel sEH inhibitors’ (4f and 4l) effect | attenuated |  | not Pgp substrates | similarly attenuated the number of cells in BAL | more pronounced in reducing IL-6 and CCL-2 expressions | similarly attenuated | attenuated; also recorded: more pronounced in reducing IL-6 and CCL-2 expressions |
